What all share (experiment): Competitive isoTOP-ABPP in situ (fragment-treated cells)
Type in all cases: cell-based

The target in test [1] is cysteines in MDA-MB-231 and Ramos cells (Homo sapiens, UniProt P07858). The following applies: 200 μM, insitu, 231.
Procedure: (§1) Fragments 4 and 11 were screened at 100 μM in situ. […] Site-specific engagement of electrophilic fragments was assessed by blockade of IA-alkyne probe labeling. […] Ratios for unique peptide entries were calculated for each experiment; overlapping peptides with the same modified cysteine (e.g. different charge states, MudPIT chromatographic steps or tryptic termini) were grouped together and the median ratio was reported as the final ratio (R). The peptide ratios reported by CIMAGE were further filtered to ensure the removal or correction of low quality ratios in each individual dataset. […] R values were calculated and individual datasets were filtered as described above (R value calculation and processing).
For test [2], the target named is cysteines in MDA-MB-231 and Ramos cells (Homo sapiens, UniProt Q96FX7). The following applies: 200 μM, insitu, 231.
Procedure: as §1
Test [3] deals with cysteines in MDA-MB-231 and Ramos cells (Homo sapiens, UniProt Q5MNZ6). The following applies: 200 μM, insitu, 231.
Procedure: as §1
The target in test [4] is T1, cysteines in MDA-MB-231 and Ramos cells (Homo sapiens, UniProt Q86UY8).
T1 sequence (Q86UY8 1-548): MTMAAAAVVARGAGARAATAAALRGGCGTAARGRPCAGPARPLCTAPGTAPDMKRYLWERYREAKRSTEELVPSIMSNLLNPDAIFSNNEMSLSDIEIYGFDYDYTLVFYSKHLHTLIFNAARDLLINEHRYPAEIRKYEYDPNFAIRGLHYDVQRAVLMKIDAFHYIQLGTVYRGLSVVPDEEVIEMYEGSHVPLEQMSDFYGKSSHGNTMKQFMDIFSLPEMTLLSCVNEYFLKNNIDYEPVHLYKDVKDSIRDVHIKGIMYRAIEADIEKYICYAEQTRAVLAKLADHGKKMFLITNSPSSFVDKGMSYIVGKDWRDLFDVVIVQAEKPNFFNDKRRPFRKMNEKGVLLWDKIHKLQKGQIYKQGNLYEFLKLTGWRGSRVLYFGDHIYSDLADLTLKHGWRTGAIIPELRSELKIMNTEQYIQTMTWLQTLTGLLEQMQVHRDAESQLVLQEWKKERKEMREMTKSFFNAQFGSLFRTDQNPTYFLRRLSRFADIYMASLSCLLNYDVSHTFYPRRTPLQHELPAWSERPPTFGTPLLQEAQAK
The following applies: 200 μM, insitu, 231.
Procedure: as §1

In test [5] the target is T2, cysteines in MDA-MB-231 and Ramos cells (Homo sapiens, UniProt P51649).
T2 sequence (P51649 48-535): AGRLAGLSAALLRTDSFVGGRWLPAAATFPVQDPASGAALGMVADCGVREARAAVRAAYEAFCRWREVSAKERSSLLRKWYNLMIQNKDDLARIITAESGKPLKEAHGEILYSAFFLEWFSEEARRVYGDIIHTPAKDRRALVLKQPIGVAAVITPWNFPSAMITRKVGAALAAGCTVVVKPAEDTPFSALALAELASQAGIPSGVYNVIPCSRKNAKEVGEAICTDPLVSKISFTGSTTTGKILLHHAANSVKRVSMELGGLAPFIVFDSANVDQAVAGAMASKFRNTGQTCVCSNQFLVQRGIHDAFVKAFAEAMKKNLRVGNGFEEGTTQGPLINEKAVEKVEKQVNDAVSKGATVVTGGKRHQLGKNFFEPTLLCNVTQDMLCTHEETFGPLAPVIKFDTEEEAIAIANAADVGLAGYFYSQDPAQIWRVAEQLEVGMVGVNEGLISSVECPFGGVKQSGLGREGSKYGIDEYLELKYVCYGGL
The following applies: 200 μM, insitu.
Procedure: as §1

Test [6] concerns the target cysteines in MDA-MB-231 and Ramos cells (Homo sapiens, UniProt O14933). The following applies: 200 μM, insitu.
Procedure: as §1
In test [7] the target is cysteines in MDA-MB-231 and Ramos cells (Homo sapiens, UniProt P45984). The following applies: 200 μM, insitu.
Procedure: as §1
Test [8] deals with cysteines in MDA-MB-231 and Ramos cells (Homo sapiens, UniProt P22061). The following applies: 200 μM, insitu.
Procedure: as §1
Test [9] concerns the target cysteines in MDA-MB-231 and Ramos cells (Homo sapiens, UniProt P48643). The following applies: 200 μM, insitu.
Procedure: as §1
The target of test [10] is T3, cysteines in MDA-MB-231 and Ramos cells (Homo sapiens, UniProt Q9NY27).
T3 sequence (Q9NY27 1-417): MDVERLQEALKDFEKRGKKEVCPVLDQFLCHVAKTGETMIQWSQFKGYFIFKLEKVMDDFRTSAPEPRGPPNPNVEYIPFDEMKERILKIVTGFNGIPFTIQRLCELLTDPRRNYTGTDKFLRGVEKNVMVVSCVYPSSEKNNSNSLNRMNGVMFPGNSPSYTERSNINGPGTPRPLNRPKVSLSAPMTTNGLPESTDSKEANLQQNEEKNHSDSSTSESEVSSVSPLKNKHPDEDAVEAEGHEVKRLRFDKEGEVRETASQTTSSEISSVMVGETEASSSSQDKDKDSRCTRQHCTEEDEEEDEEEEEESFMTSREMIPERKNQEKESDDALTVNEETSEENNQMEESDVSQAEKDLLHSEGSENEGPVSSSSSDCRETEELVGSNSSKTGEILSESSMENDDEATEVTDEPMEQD
The following applies: 200 μM, insitu.
Procedure: as §1

Test [11] deals with T4, cysteines in MDA-MB-231 and Ramos cells (Homo sapiens, UniProt Q8N1F7).
T4 sequence (Q8N1F7 1-819): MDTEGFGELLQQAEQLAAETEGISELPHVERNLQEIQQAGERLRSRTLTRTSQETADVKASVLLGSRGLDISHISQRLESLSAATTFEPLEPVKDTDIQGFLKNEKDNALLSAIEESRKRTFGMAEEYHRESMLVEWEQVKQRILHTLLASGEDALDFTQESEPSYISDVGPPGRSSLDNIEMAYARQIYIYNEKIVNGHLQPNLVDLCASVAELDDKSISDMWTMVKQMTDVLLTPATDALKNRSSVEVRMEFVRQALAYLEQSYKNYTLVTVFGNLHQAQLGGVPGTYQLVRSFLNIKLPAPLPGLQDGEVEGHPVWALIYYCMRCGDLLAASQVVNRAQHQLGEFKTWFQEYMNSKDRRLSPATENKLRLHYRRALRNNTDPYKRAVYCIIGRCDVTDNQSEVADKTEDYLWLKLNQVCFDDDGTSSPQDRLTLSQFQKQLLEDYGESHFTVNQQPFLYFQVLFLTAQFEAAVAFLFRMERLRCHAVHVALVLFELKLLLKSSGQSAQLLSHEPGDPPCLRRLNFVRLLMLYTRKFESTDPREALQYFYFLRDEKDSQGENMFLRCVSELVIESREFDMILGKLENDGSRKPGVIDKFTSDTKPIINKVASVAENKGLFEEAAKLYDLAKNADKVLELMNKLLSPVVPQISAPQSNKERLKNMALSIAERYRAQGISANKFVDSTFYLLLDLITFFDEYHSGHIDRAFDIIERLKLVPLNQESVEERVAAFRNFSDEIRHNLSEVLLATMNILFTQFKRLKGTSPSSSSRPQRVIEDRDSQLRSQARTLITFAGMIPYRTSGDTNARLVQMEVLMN
The following applies: 200 μM, insitu.
Procedure: as §1

This is an account of results in patent publication US10670605B2, “Cysteine reactive probes and uses thereof” (The Scripps Research Institute, priority 2015, dated 2020).

Structures are written as SMILES.

cysteines in MDA-MB-231 and Ramos cells (Homo sapiens, UniProt P48643), sequence (P48643 whole entry): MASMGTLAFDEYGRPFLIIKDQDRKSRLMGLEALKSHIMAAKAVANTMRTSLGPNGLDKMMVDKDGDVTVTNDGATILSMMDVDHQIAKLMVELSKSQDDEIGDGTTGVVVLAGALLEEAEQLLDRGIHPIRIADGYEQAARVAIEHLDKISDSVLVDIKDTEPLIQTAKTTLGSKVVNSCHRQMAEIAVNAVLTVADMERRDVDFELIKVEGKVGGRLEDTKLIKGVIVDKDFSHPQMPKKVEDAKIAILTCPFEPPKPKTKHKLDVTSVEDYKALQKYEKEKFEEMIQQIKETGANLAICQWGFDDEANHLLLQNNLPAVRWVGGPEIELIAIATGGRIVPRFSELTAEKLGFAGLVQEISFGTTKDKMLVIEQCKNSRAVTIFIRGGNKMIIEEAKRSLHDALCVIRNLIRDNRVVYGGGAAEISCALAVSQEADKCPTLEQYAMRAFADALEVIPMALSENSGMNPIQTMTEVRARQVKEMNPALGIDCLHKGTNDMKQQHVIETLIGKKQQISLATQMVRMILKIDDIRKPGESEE
cysteines in MDA-MB-231 and Ramos cells (Homo sapiens, UniProt P22061), sequence (P22061 whole entry): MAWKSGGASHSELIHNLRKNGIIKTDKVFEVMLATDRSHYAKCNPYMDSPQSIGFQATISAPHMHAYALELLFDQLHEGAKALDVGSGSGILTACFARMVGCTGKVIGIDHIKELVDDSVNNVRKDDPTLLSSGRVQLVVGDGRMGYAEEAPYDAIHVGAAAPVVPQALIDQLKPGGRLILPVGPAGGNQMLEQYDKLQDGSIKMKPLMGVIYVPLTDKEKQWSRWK
cysteines in MDA-MB-231 and Ramos cells (Homo sapiens, UniProt Q5MNZ6), sequence (Q5MNZ6 whole entry): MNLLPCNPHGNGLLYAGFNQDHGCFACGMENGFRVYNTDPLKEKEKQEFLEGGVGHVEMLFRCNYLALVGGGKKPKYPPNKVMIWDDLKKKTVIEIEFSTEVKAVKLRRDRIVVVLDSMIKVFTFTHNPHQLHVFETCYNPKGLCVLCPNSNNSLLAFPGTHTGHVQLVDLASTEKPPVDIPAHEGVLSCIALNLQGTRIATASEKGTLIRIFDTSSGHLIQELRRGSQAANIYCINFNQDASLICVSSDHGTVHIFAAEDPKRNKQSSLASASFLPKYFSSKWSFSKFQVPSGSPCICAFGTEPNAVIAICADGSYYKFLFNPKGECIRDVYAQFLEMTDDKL
cysteines in MDA-MB-231 and Ramos cells (Homo sapiens, UniProt P45984), sequence (P45984 whole entry): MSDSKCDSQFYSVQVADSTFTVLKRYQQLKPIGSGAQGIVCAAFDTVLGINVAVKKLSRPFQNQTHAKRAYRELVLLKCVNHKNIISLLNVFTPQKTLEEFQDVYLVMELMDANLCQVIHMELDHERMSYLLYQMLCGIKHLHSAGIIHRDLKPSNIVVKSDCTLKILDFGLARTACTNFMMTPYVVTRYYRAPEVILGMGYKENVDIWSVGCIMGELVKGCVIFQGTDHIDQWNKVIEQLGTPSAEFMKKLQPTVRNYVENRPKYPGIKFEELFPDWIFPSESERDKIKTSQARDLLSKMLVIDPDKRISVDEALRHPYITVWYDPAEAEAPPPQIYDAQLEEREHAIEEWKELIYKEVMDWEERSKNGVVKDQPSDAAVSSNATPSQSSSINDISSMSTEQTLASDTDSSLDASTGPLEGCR
cysteines in MDA-MB-231 and Ramos cells (Homo sapiens, UniProt O14933), sequence (O14933 whole entry): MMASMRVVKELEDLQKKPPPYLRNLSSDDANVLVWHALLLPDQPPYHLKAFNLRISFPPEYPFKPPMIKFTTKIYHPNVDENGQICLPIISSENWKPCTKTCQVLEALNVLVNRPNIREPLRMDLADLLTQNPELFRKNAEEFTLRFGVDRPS
cysteines in MDA-MB-231 and Ramos cells (Homo sapiens, UniProt Q96FX7), sequence (Q96FX7 whole entry): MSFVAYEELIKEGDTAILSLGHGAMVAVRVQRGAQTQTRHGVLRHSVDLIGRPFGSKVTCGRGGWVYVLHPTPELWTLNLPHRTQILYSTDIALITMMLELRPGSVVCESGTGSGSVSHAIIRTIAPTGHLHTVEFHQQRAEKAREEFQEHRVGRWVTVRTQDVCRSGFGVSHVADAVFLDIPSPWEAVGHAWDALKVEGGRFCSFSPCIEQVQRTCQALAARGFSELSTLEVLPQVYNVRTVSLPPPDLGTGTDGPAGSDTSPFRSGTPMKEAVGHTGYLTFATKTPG

For `O=C(CCl)NC12CC3CC(CC(C3)C1)C2` [compound 21], in [1], the “isoTOP-ABPP ratio P07858_C211” value worked out at 2.6. Moreover, the “isoTOP-ABPP ratio, cysteine Q96FX7_C209” value in [2] stood at 2.0. Further, the “isoTOP-ABPP ratio Q5MNZ6_C63” value in test [3] was determined as 0.8. The “isoTOP-ABPP ratio Q86UY8_C276” value in test [4] is 1.8. For the same molecule, the “isoTOP-ABPP ratio P51649_C340” value in test [5] (231) stood at 1.2. Moreover, in [6] (231), the “isoTOP-ABPP ratio, cysteine O14933_C98” value is given as 0.7.
With `CC(C)CCOCCNC(=O)CCl` [compound 27], in test [1], the “isoTOP-ABPP ratio P07858_C211” value stood at 0.8. Also, the “isoTOP-ABPP ratio P45984_C177” value in [7] (231) is given as 0.5. Moreover, in test [8] (231), the “isoTOP-ABPP ratio P22061_” value is reported as 2.2. The “isoTOP-ABPP ratio Q86UY8_C276” value in [4] stood at 1.7. In test [5] (231), the “isoTOP-ABPP ratio P51649_C340” value was 0.9.
Take `COc1ccccc1OCCNC(=O)CCl` [compound 28]: the “isoTOP-ABPP ratio Q5MNZ6_C63” value in test [3] is given as 1.7. For the same molecule, the “isoTOP-ABPP ratio P48643_C253” value in test [9] (231) came out at 0.8.
As for `O=C(CCl)N1CCN(CC(=O)N2CCOCC2)CC1` [compound 29], the “isoTOP-ABPP ratio P45984_C177” value in [7] (ramos) stood at 1.7. Further, the “isoTOP-ABPP ratio P22061_” value in test [8] (ramos) is listed as 1.2. Further, in [10] (ramos), the “isoTOP-ABPP ratio Q9NY27_C22” value turned out to be 1.7. Further, the “isoTOP-ABPP ratio P51649_C340” value in [5] (ramos) is listed as 1.0. Besides, the “isoTOP-ABPP ratio O14933_C98” value in test [6] (ramos) worked out at 2.4. Moreover, the “isoTOP-ABPP ratio Q8N1F7_C522” value in test [11] (ramos) is 1.7.
Take `C=CC(=O)N(Cc1cccnc1)c1cc(C(F)(F)F)cc(C(F)(F)F)c1` [compound 31]: the “isoTOP-ABPP ratio P51649_C340” value in test [5] (ramos) is recorded as 1.0. Also, the “isoTOP-ABPP ratio O14933_C98” value in test [6] (ramos) is 1.9. Further, the “isoTOP-ABPP ratio Q8N1F7_C522” value in [11] (ramos) was determined as 3.6. Also, the “isoTOP-ABPP ratio P48643_C253” value in test [9] (231) was 0.5; in test [9] (ramos) it was 1.0.
As to `C=CC(=O)Nc1cc(F)c(N2CCN(C(=O)OC(C)(C)C)CC2)c(F)c1` [compound 38], the “isoTOP-ABPP ratio P07858_C211” value in test [1] stood at 1.8. The “isoTOP-ABPP ratio Q96FX7_C209” value in [2] was 1.0. Further, the “isoTOP-ABPP ratio Q9NY27_C22” value in test [10] (231) is 1.0. The “isoTOP-ABPP ratio O14933_C98” value in test [6] (231) came out at 1.6. Also, in test [11] (231), the “isoTOP-ABPP ratio Q8N1F7_C522” value was determined as 1.7. Further, the “isoTOP-ABPP ratio P48643_C253” value in test [9] (231) is listed as 1.1.
Turning to `Cc1ccc(C=C(C#N)C(=O)NCCN2CCOCC2)cc1` [compound 41], the “isoTOP-ABPP ratio P07858_C211” value in [1] is listed as 0.4. Further, the “isoTOP-ABPP ratio P45984_C177” value in test [7] (231) came to 0.5. The “isoTOP-ABPP ratio P22061_” value in test [8] (231) is 0.7. In addition, the “isoTOP-ABPP ratio Q5MNZ6_C63” value in [3] is given as 0.8. Besides, the “isoTOP-ABPP ratio Q9NY27_C22” value in test [10] (231) was 0.8. In test [4], the “isoTOP-ABPP ratio Q86UY8_C276” value is 1.7. Moreover, in test [6] (231), the “isoTOP-ABPP ratio O14933_C98” value amounted to 0.5. In addition, in test [11] (231), the “isoTOP-ABPP ratio Q8N1F7_C522” value came out at 0.8. Also, the “isoTOP-ABPP ratio P48643_C253” value in test [9] (231) amounted to 0.8.
`O=C(CCl)Nc1cccc2ncccc12` [compound 51]: in test [10] (231), the “isoTOP-ABPP ratio Q9NY27_C22” value worked out at 2.2. Moreover, the “isoTOP-ABPP ratio Q86UY8_C276” value in [4] is on record as 1.2. Further, the “isoTOP-ABPP ratio P48643_C253” value in [9] (231) turned out to be 0.8.
